The values that follow come from patent publication US10358436B2, “Kinase inhibitors and method of treating cancer” (University Health Network, priority 2010, dated 2019).

Structures can show the parent of a compound that is named as a salt. A value given as a limit tells only on which side of the number the result lay.

As usually defined, the inhibition is the change of the read-out against control, counted positive when it falls.

The target in this test is Aurora A (Homo sapiens (Human), UniProt O14965). Put plainly: Aurora A inhibition assay (Z-Lyte). The format is biochemical.
Chain of Aurora A (O14965 whole entry): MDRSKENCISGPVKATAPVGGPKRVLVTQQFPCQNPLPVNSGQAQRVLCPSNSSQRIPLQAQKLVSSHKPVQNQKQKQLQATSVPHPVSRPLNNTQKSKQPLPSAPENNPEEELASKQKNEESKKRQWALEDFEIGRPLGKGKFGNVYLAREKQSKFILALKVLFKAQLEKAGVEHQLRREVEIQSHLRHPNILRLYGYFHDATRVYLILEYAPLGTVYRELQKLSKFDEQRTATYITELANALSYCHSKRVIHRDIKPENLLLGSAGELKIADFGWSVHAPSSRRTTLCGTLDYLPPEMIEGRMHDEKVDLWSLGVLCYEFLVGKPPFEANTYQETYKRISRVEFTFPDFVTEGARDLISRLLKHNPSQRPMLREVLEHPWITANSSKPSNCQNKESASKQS
On to `COc1ccc2c(c1)[C@]1(C[C@H]1c1ccc3c(C#Cc4ccc(CN5CCN(C)CC5)cc4)n[nH]c3c1)C(=O)N2` (relative stereo) [Example A145, (1R*,2S*)-5′-methoxy-2-(3-((4-((4-methylpiperazin-1-yl)methyl)phenyl)ethynyl)-1H-indazol-6-yl)spiro[cyclopropane-1,3′-indolin]-2′-one bis(2,2,2-trifluoroacetate)], for which the inhibition at 1 µM was under 50%. Under `O=C1Nc2ccccc2[C@]12C[C@H]2c1ccc2c(/C=C/c3ccc(N4CCNCC4)cc3)n[nH]c2c1` [Example A92, (1R,2S)-(E)-2-(3-(4-(piperazin-1-yl)styryl)-1H-indazol-6-yl)spiro[cyclopropane-1,3′-indolin]-2′-one bis(2,2,2-trifluoroacetate)] stands over 50%; under `COc1ccc2c(c1)[C@]1(C[C@H]1c1ccc3c(/C=C/c4ccc(CN5CCCOCC5)cc4)n[nH]c3c1)C(=O)N2` [Example A73, (1R,2S)-(E)-2-(3-(4-((1,4-oxazepan-4-yl)methyl)styryl)-1H-indazol-6-yl)-5′-methoxyspiro[cyclopropane-1,3′-indolin]-2′-one 2,2,2-trifluoroacetate salt], over 50%. To `O=C1Nc2ccccc2[C@]12C[C@H]2c1ccc2c(/C=C/c3cc(F)c(CN4CCOCC4)c(F)c3)n[nH]c2c1` [Example A116, (1R,2S)-(E)-2-(3-(3,5-difluoro-4-(morpholinomethyl)styryl)-1H-indazol-6-yl)spiro[cyclopropane-1,3′-indolin]-2′-one 2,2,2-trifluoroacetate] belongs over 50%; to `CN(C)Cc1ccc(/C=C/c2n[nH]c3cc([C@@H]4C[C@@]45C(=O)Nc4ccc(OC(F)F)cc45)ccc23)cc1` (relative stereo) [Example A214, (1R*,2S*)-(E)-5′-difluoromethoxy-2-(3-(4-((dimethylamino)methyl)styryl)-1H-indazol-6-yl)spiro[cyclopropane-1,3′-indolin]-2′-one 2,2,2-trifluoroacetate], over 50%. Compound `Cc1ccc(/C=C/c2n[nH]c3cc([C@@H]4C[C@@]45C(=O)Nc4ccccc45)ccc23)c(C)n1` (relative stereo) [Example A158, (1R*,2S*)-2-(3-((E)-2-(2,6-dimethylpyridin-3-yl)vinyl)-1H-indazol-6-yl)spiro[cyclopropane-1,3′-indolin]-2′-one] gave an inhibition at 1 µM of over 50%. With `Cc1ccc2c(c1)[C@]1(C[C@H]1c1ccc3c(-c4ccc(N5CCN(C)CC5)cc4)n[nH]c3c1)C(=O)N2` (relative stereo) [Example A173, (1R*,2S*)-5′-methyl-2-(3-(4-(4-methylpiperazin-1-yl)phenyl)-1H-indazol-6-yl)spiro[cyclopropane-1,3′-indolin]-2′-one 2,2,2-trifluoroacetate], the inhibition at 1 µM is under 50%. Compound `COc1ccc2c(c1)[C@]1(C[C@H]1c1ccc3c(/C=C/c4ccc(CN5CCOCC5)c(F)c4)n[nH]c3c1)C(=O)N2` [Example A199, (1R,2S)-(E)-2-(3-(3-fluoro-4-(morpholinomethyl)styryl)-1H-indazol-6-yl)-S-methoxyspiro[cyclopropane-1,3′-indolin]-2′-one 2,2,2-trifluoroacetate] displayed an inhibition at 1 µM of over 50%.

With `COc1ccc2c(c1)[C@@]1(C[C@@H]1c1ccc3c(-c4ccc(N5CCNCC5)cc4)n[nH]c3c1)C(=O)N2` [Example A50, (1S,2R)-5′-methoxy-2-(3-(4-(piperazin-1-yl)phenyl)-1H-indazol-6-yl)spiro[cyclopropane-1,3′-indolin]-2′-one 2,2,2-trifluoroacetate], the inhibition at 1 µM is under 50%. To `COc1ccc2c(c1)[C@]1(C[C@H]1c1ccc3c(-c4ccc5c(c4)CN(C)CC5)n[nH]c3c1)C(=O)N2` [Example A70, (1R,2S)-5′-methoxy-2-(3-(2-methyl-1,2,3,4-tetrahydroisoquinolin-7-yl)-1H-indazol-6-yl)spiro[cyclopropane-1,3′-indolin]-2′-one 2,2,2-trifluoroacetate salt] belongs under 50%; to `CN1CCC(Cc2ccc(/C=C/c3n[nH]c4cc([C@@H]5C[C@@]56C(=O)Nc5ccccc56)ccc34)cc2)CC1` [Example A81, (1R,2S)-(E)-2-(3-(4-((l-methylpiperidin-4-yl)methyl)styryl)-1H-indazol-6-yl)spiro[cyclopropane-1,3′-indolin]-2′-one 2,2,2-trifluoroacetate salt], over 50%; to `COc1ccc2c(c1)[C@]1(C[C@H]1c1ccc3c(/C=C/c4cccc(CN(C)C)c4)n[nH]c3c1)C(=O)N2` (relative stereo) [Example A135, (1R*,2S*)-2-(3-(3-((dimethylamino)methyl)styryl)-1H-indazol-6-yl)-5′-methoxyspiro[cyclopropane-1,3′-indolin]-2′-one 2,2,2-trifluoroacetate], over 50%. To `COc1ccc2c(c1)[C@]1(C[C@H]1c1ccc3c(/C=C/c4cccc(CN5CCOCC5)c4)n[nH]c3c1)C(=O)N2` (relative stereo) [Example A133, (1R*,2S*)-5′-methoxy-2-(3-(3-(morpholinomethyl)styryl)-1H-indazol-6-yl)spiro[cyclopropane-1,3′-indolin]-2′-one 2,2,2-trifluoroacetate] belongs over 50%. Under `CN1CCN(c2ccc(-c3n[nH]c4cc([C@@H]5C[C@@]56C(=O)Nc5ccc(Br)cc56)ccc34)cn2)CC1` (relative stereo) [Example A19, (1R*,2S*)-5′-bromo-2-(3-(6-(4-methylpiperazin-1-yl)pyridin-3-yl)-1H-indazol-6-yl)spiro[cyclopropane-1,3′-indolin]-2′-one] stands under 50%.

Compound `COc1cc2c(cc1OC)[C@]1(C[C@H]1c1ccc3c(/C=C/c4ccc(CN(C)C)cc4)n[nH]c3c1)C(=O)N2` (relative stereo) [Example A168, (1R*,2S*)-(E)-2-(3-(4-((dimethylamino)methyl)styryl)-1H-indazol-6-yl)-5′,6′-dimethoxyspiro[cyclopropane-1,3′-indolin]-2′-one 2,2,2-trifluoroacetate] showed an inhibition at 1 µM of under 50%. To `O=C1Nc2ccccc2[C@]12C[C@H]2c1ccc2c(/C=C/c3ccc4c(c3)CNCCO4)n[nH]c2c1` [Example A113, (1R,2S)-2-(3-((E)-2-(2,3,4,5-tetrahydrobenzo[f][1,4]oxazepin-7-yl)vinyl)-1H-indazol-6-yl)spiro[cyclopropane-1,3′-indolin]-2′-one 2,2,2-trifluoroacetate] belongs over 50%; to `O=C1Nc2ccccc2[C@]12C[C@H]2c1ccc2c(/C=C/c3ccc(CN4CC[C@@H](F)C4)cc3)n[nH]c2c1` [Example A106, (1R,2S)-(E)-2-(3-(4-(((R)-3-fluoropyrrolidin-1-yl)methyl)styryl)-1H-indazol-6-yl)spiro[cyclopropane-1,3′-indolin]-2′-one 2,2,2-trifluoroacetate], over 50%. To `CCc1ccc2c(c1)[C@]1(C[C@H]1c1ccc3c(/C=C/c4ccc(CN(C)C)cc4)n[nH]c3c1)C(=O)N2` (relative stereo) [Example A167, (1R*,2S*)-(E)-2-(3-(4-((dimethylamino)methyl)styryl)-1H-indazol-6-yl)-5′-ethylspiro[cyclopropane-1,3′-indolin]-2′-one 2,2,2-trifluoroacetate] belongs over 50%; to `Cc1ccc2c(c1)[C@]1(C[C@H]1c1ccc3c(/C=C/c4ccc(CN5CCOCC5)cc4)n[nH]c3c1)C(=O)N2` (relative stereo) [Example A196, (1R*,2S*)-(E)-5′-methyl-2-(3-(4-(morpholinomethyl)styryl)-1H-indazol-6-yl)spiro[cyclopropane-1,3′-indolin]-2′-one 2,2,2-trifluoroacetate], over 50%; to `COc1ccc2c(c1)[C@]1(C[C@H]1c1ccc3c(/C=C/c4csc(CN5CCOCC5)c4)n[nH]c3c1)C(=O)N2` [Example A183, (1R,2S)-5′-methoxy-2-(3-((E)-2-(5-(morpholinomethyl)thiophen-3-yl)vinyl)-1H-indazol-6-yl)spiro[cyclopropane-1,3′-indolin]-2′-one 2,2,2-trifluoroacetate], over 50%. `COc1ccc2c(c1)[C@]1(C[C@H]1c1ccc3c(/C=C/c4csc(CN5CCOCC5)c4)n[nH]c3c1)C(=O)N2` (relative stereo) [Example A184, (1R*,2S*)-5′-methoxy-2-(3-((E)-2-(5-(morpholinomethyl)thiophen-3-yl)vinyl)-1H-indazol-6-yl)spiro[cyclopropane-1,3′-indolin]-2′-one 2,2,2-trifluoroacetate] had an inhibition at 1 µM of over 50%. Under `COc1ccc2c(c1)[C@]1(C[C@H]1c1ccc3c(-c4ccc(N5CCN(C6CCCCC6)CC5)cc4)n[nH]c3c1)C(=O)N2` [Example A193, (1R,2S)-2-(3-(4-(4-cyclohexylpiperazin-1-yl)phenyl)-1H-indazol-6-yl)-5′-methoxyspiro[cyclopropane-1,3′-indolin]-2′-one 2,2,2-trifluoroacetate] stands under 50%; under `O=C1Nc2ccccc2[C@]12C[C@H]2c1ccc2c(I)n[nH]c2c1` [Example A10, (1R,2S)-2-(3-iodo-1H-indazol-6-yl)spiro[cyclopropane-1,3′-indolin]-2′-one], under 50%. Compound `COc1ccc2c(c1)[C@]1(C[C@H]1c1ccc3c(-c4ccc(OCCN(C)C)cc4)n[nH]c3c1)C(=O)N2` [Example A69, (1R,2S)-2-(3-(4-(2-(dimethylamino)ethoxy)phenyl)-1H-indazol-6-yl)-5′-methoxyspiro[cyclopropane-1,3′-indolin]-2′-one 2,2,2-trifluoroacetate salt] displayed an inhibition at 1 µM of under 50%. `Cc1ccc2c(c1)[C@]1(C[C@H]1c1ccc3c(/C=C/c4ccc(CN(C)C)cc4)n[nH]c3c1)C(=O)N2` (relative stereo) [Example A169, (1R*,2S*)-(E)-2-(3-(4-((dimethylamino)methyl)styryl)-1H-indazol-6-yl)-5′-methylspiro[cyclopropane-1,3′-indolin]-2′-one 2,2,2-trifluoroacetate] registered an inhibition at 1 µM of over 50%.
